# Test results taken from patent US20260022142A1, “MACROCYCLIC IMMUNOMODULATORS” (Bristol-Myers Squibb Company, priority 2022, published 2026).
# Numbered stars: 1 amine (or outer) side, 2 acyl side, 3 side chain; on linkers, the order of the positions; unused ones are H or OH. Bridge positions count the residues as written; N and C are the ends. Square brackets hold non-standard residues; d marks the D form. Peptide text beside a SMILES is read from it. * marks the point of attachment. ξ: configuration not given here. Phe(3-CF3) = N[C@@H](Cc1cccc(C(F)(F)F)c1)C(=O)O; Phe(4-COOH) = N[C@@H](Cc1ccc(C(=O)O)cc1)C(=O)O; Bip = N[C@@H](Cc1ccc(-c2ccccc2)cc1)C(=O)O; Phe(3-Me) = Cc1cccc(C[C@H](N)C(=O)O)c1; Phe(4-F) = N[C@@H](Cc1ccc(F)cc1)C(=O)O; βAsp = O=C(O)[C@H](CC(=O)[*:2])N[*:1]; NH(CH2)12COOH = O=C(O)CCCCCCCCCCCCN*; His(π-Me) = Cn1cncc1C[C@H](N)C(=O)O; Val(3-OH) = CC(C)(O)[C@H](N)C(=O)O; 4Pal = N[C@@H](Cc1ccncc1)C(=O)O; Cha = N[C@@H](CC1CCCCC1)C(=O)O; Cit = NC(=O)NCCC[C@H](N)C(=O)O; Ile(3ξ) = CCC(C)[C@H](N)C(=O)O; Thr(3ξ) = CC(O)[C@H](N)C(=O)O; 12Ado = NCCCCCCCCCCCC(=O)O; Carboxymethyl = O=C(O)C*; Orn = NCCC[C@H](N)C(=O)O; Pra = C#CC[C@H](N)C(=O)O; dDap = NC[C@@H](N)C(=O)O; Aun = NCCCCCCCCCCC(=O)O; Dab = NCC[C@H](N)C(=O)O; Dap = NC[C@H](N)C(=O)O; AEEA = NCCOCCOCC(=O)O; Sar = CNCC(=O)O
# Target: T1, PD-1/PD-L1 interaction (PE-labeled human PD-L1-Ig binding to Jurkat cell line over-expressing human PD-1) (Homo sapiens, UniProt Q15116)
# T1 construct: expressed in transfected cells; host or cells: Jurkat
# T1 sequence (Q15116 25-288): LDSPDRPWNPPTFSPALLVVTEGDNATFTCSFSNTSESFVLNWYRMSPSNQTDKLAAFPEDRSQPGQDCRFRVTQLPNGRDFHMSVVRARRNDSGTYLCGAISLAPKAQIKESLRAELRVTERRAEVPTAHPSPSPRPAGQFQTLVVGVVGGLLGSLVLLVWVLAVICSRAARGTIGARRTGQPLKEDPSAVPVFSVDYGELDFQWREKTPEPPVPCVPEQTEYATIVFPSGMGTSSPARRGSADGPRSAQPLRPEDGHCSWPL
# Experiment: Jurkat-PD-1 Cell Binding High-Content Screening Assay (CBA)
# Format: cell-based
# Conditions: Jurkat cell line over-expressing human PD-1; PE-labeled PD-L1-Ig 20 nM final; read-out: Jurkat hPD1-PDL1 IC50
# Method in brief: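 Jurkat cells over-expressing human PD-1 (8×10^3 per well, DMEM/10% FCS) preincubated with compound 2 h at 37° C, then PE-labeled human PD-L1-Ig (20 nM final) added for 1 h. Cells fixed with paraformaldehyde, Hoechst-stained, and bound fluorescence quantified by high-content imaging.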
row,IC50,Compound
1,36.6 nM,CCC(C)[C@@H]1NC(=O)[C@H](Cc2ccc(-c3ccccc3)cc2)NC(=O)[C@H](C(C)C)NC(=O)[C@H](Cc2c[nH]c3ccccc23)NC(=O)[C@H](CC(=O)O)NC(=O)[C@H](Cc2ccc(OCC(=O)O)cc2)NC(=O)[C@H](Cc2ccc(F)cc2)NC(=O)CSC[C@@H](C(=O)N[C@@H](CCN)C(=O)NCCOCCOCC(=O)NCCCCCCCCCCC(=O)O)NC(=O)[C@H](CC(=O)O)NC(=O)[C@H](C(C)O)NC(=O)[C@H](CC2CCCCC2)NC(=O)[C@H](CCN)NC(=O)[C@@H](CC(C)C)NC(=O)[C@H](CCCN)NC1=O (stereo partly drawn) [Compound 3802] ({CH2CO}-[Phe(4-F)]Y(Carboxymethyl)DWV[Bip][Ile(3ξ)][Orn][dL][Dab][Cha][Thr(3ξ)]DC[Dab][AEEA][Aun]-OH; thioether N-14)
2,57.2 nM,Cc1cccc(C[C@@H]2NC(=O)[C@H](CC(=O)O)NC(=O)[C@H](Cc3ccc(OCC(=O)O)cc3)NC(=O)[C@H](Cc3ccc(OCC(=O)O)cc3)NC(=O)CSC[C@@H](C(=O)N[C@@H](CCCCN)C(=O)NCCCCCCCCCCC(=O)O)NC(=O)[C@H](CO)NC(=O)[C@H](C(C)C)NC(=O)[C@H](CC3CCCCC3)NC(=O)[C@H](CCN)NC(=O)[C@@H](CC(C)C)NC(=O)[C@H](CCCN)NC(=O)[C@H](C(C)C)NC(=O)[C@H](Cc3ccc(-c4ccccc4)cc3)NC(=O)[C@H](CC(C)C)NC2=O)c1 [Compound 1058] ({CH2CO}-Y(Carboxymethyl)Y(Carboxymethyl)D[Phe(3-Me)]L[Bip]V[Orn][dL][Dab][Cha]VSCK[Aun]-OH; thioether N-14)
3,20 nM,C#CC[C@H](NC(=O)COCCOCCNC(=O)[C@H](CN)NC(=O)[C@@H]1CSCC(=O)N[C@@H](Cc2ccncc2)C(=O)N[C@@H](Cc2ccc(OCC(=O)O)cc2)C(=O)N[C@@H](CC(=O)O)C(=O)N[C@@H](Cc2c[nH]c3ccccc23)C(=O)N[C@@H](C(C)C)C(=O)N[C@@H](Cc2ccc(-c3ccccc3)cc2)C(=O)N[C@@H]([C@@H](C)CC)C(=O)N[C@@H](CCCN)C(=O)N[C@H](CC(C)C)C(=O)N[C@@H](CCN)C(=O)N[C@@H](CC(C)C)C(=O)N[C@@H](C(C)C)C(=O)N[C@@H]([C@@H](C)O)C(=O)N1)C(=O)NCCCCCCCCCCC(=O)O [Compound 1205] ({CH2CO}-[4Pal]Y(Carboxymethyl)DWV[Bip]I[Orn][dL][Dab]LVTC[Dap][AEEA][Pra][Aun]-OH; thioether N-14)
4,13.7 nM,C#CC[C@H](NC(=O)COCCOCCNC(=O)[C@@H]1CSCC(=O)N[C@@H](Cc2ccncc2)C(=O)N[C@@H](Cc2ccc(OCC(=O)O)cc2)C(=O)N[C@@H](CC(=O)O)C(=O)N[C@@H](Cc2c[nH]c3ccccc23)C(=O)N[C@@H](C(C)C)C(=O)N[C@@H](Cc2ccc(-c3ccccc3)cc2)C(=O)N[C@@H]([C@@H](C)CC)C(=O)N[C@@H](CCCN)C(=O)N[C@H](CC(C)C)C(=O)N[C@@H](CCN)C(=O)N[C@@H](CC(C)C)C(=O)N[C@@H](C(C)C)C(=O)N[C@@H]([C@@H](C)O)C(=O)N1)C(=O)N[C@@H](CCCCN)C(=O)NCCCCCCCCCCC(=O)O [Compound 1214] ({CH2CO}-[4Pal]Y(Carboxymethyl)DWV[Bip]I[Orn][dL][Dab]LVTC[AEEA][Pra]K[Aun]-OH; thioether N-14)
5,28.7 nM,CC(C)C[C@H]1NC(=O)[C@H](CCCN)NC(=O)[C@H](C(C)C)NC(=O)[C@H](Cc2ccc(-c3ccccc3)cc2)NC(=O)[C@H](C(C)C)NC(=O)[C@H](Cc2c[nH]c3ccccc23)NC(=O)[C@H](CC(=O)O)NC(=O)[C@H](Cc2ccc(OCC(=O)O)cc2)NC(=O)[C@H](CN)NC(=O)CSC[C@@H](C(=O)NCCOCCOCC(=O)N[C@H](CN)C(=O)NCCCCCCCCCCC(=O)O)NC(=O)[C@H]([C@@H](C)O)NC(=O)[C@H](C(C)C)NC(=O)[C@H](CC2CCCCC2)NC(=O)[C@H](Cc2cnc[nH]2)NC1=O [Compound 1128] ({CH2CO}-[Dap]Y(Carboxymethyl)DWV[Bip]V[Orn][dL]H[Cha]VTC[AEEA][dDap][Aun]-OH; thioether N-14)
6,37.4 nM,Cc1cccc(C[C@@H]2NC(=O)[C@H](CC(=O)O)NC(=O)[C@H](Cc3ccc(OCC(=O)O)cc3)NC(=O)[C@H](CN)NC(=O)CSC[C@@H](C(=O)N[C@@H](CCN)C(=O)NCCOCCOCC(=O)NCCCCCCCCCCC(=O)O)NC(=O)[C@H](CN)NC(=O)[C@H](Cc3ccc(O)cc3)NC(=O)[C@H](CC3CCCCC3)NC(=O)[C@H](CCN)NC(=O)[C@@H](CC(C)C)NC(=O)[C@H](CCCN)NC(=O)[C@H](Cc3ccc(O)cc3)NC(=O)[C@H](Cc3ccc(-c4ccccc4)cc3)NC(=O)[C@H](Cc3ccc(O)cc3)NC2=O)c1 [Compound 2504] ({CH2CO}-[Dap]Y(Carboxymethyl)D[Phe(3-Me)]Y[Bip]Y[Orn][dL][Dab][Cha]Y[Dap]C[Dab][AEEA][Aun]-OH; thioether N-14)
7,42.4 nM,CC(C)C[C@H]1NC(=O)[C@H](CCCN)NC(=O)[C@H](Cc2ccc(C(=O)O)cc2)NC(=O)[C@H](Cc2ccc(-c3ccccc3)cc2)NC(=O)[C@H](Cc2ccc(C(=O)O)cc2)NC(=O)[C@H](Cc2cccc(C(F)(F)F)c2)NC(=O)[C@H](CC(=O)O)NC(=O)[C@H](Cc2ccc(OCC(=O)O)cc2)NC(=O)[C@H](C)NC(=O)CSC[C@@H](C(=O)N[C@@H](CCN)C(=O)NCCOCCOCC(=O)N[C@@H](CC(=O)NCCOCCOCC(=O)NCCCCCCCCCCCCC(=O)O)C(=O)O)NC(=O)[C@H](CO)NC(=O)[C@H](C(C)(C)O)NC(=O)[C@H](CC2CCCCC2)NC(=O)[C@H](CCN)NC1=O [Compound 2935] ({CH2CO}-AY(Carboxymethyl)D[Phe(3-CF3)][Phe(4-COOH)][Bip][Phe(4-COOH)][Orn][dL][Dab][Cha][Val(3-OH)]SC[Dab][AEEA][βAsp][AEEA]-{NH(CH2)12COOH}; thioether N-14)
8,37.3 nM,Cc1cccc(C[C@@H]2NC(=O)[C@H](CC(=O)O)NC(=O)[C@H](Cc3ccc(OCC(=O)O)cc3)NC(=O)[C@H](C(C)O)NC(=O)CSC[C@@H](C(=O)N[C@H](CCC(=O)O)C(=O)NCCCCCCCCCCCC(=O)O)NC(=O)[C@H](C(C)O)NC(=O)[C@H](C(C)C)NC(=O)[C@H](CC3CCCCC3)NC(=O)[C@H](CCN)NC(=O)[C@@H](CC(C)C)NC(=O)[C@H](CCCN)NC(=O)[C@H](CCCNC(N)=O)NC(=O)[C@H](Cc3ccc(-c4ccccc4)cc3)NC(=O)[C@H](C(C)C)NC2=O)c1 (stereo partly drawn) [Compound 3553] ({CH2CO}-[Thr(3ξ)]Y(Carboxymethyl)D[Phe(3-Me)]V[Bip][Cit][Orn][dL][Dab][Cha]V[Thr(3ξ)]C[dE][12Ado]-OH; thioether N-14)
9,41.7 nM,Cc1cccc(C[C@@H]2NC(=O)[C@H](CC(=O)O)NC(=O)[C@H](Cc3ccc(OCC(=O)O)cc3)NC(=O)[C@H](Cc3ccc(OCC(=O)O)cc3)NC(=O)CSC[C@@H](C(=O)NCC(=O)N[C@@H](CCCCN)C(=O)NCCCCCCCCCCC(=O)O)NC(=O)[C@H](CO)NC(=O)[C@H](C(C)C)NC(=O)[C@H](CC3CCCCC3)NC(=O)[C@H](CCN)NC(=O)[C@@H](CC(C)C)NC(=O)[C@H](CCCN)NC(=O)[C@H](C(C)C)NC(=O)[C@H](Cc3ccc(-c4ccccc4)cc3)NC(=O)[C@H](CC(C)C)NC2=O)c1 [Compound 1069] ({CH2CO}-Y(Carboxymethyl)Y(Carboxymethyl)D[Phe(3-Me)]L[Bip]V[Orn][dL][Dab][Cha]VSCGK[Aun]-OH; thioether N-14)
10,92.2 nM,CC(C)C[C@@H]1NC(=O)[C@H](Cc2c[nH]c3ccccc23)NC(=O)[C@H](CC(=O)O)NC(=O)[C@H](Cc2ccc(OCC(=O)O)cc2)NC(=O)[C@H](CCN)NC(=O)CSC[C@@H](C(=O)NCCOCCOCC(=O)NCCCCCCCCCCC(=O)O)NC(=O)[C@H](CO)NC(=O)[C@H](C(C)C)NC(=O)[C@H](CC2CCCCC2)NC(=O)[C@H](Cc2cnc[nH]2)NC(=O)[C@@H](CC(C)C)NC(=O)[C@H](CCCN)NC(=O)[C@H](C(C)C)NC(=O)[C@H](Cc2ccc(-c3ccccc3)cc2)NC1=O [Compound 3701] ({CH2CO}-[Dab]Y(Carboxymethyl)DWL[Bip]V[Orn][dL]H[Cha]VSC[AEEA][Aun]-OH; thioether N-14)
11,73.6 nM,Cc1cccc(C[C@@H]2NC(=O)[C@H](CC(=O)O)NC(=O)[C@H](Cc3ccc(OCC(=O)O)cc3)NC(=O)[C@H](Cc3cncn3C)NC(=O)CSC[C@@H](C(=O)N[C@@H](CCN)C(=O)NCCCCCCCCCCC(=O)O)NC(=O)[C@H]([C@@H](C)O)NC(=O)[C@H](C(C)C)NC(=O)[C@H](CC3CCCCC3)NC(=O)[C@H](CCN)NC(=O)[C@@H](CC(C)C)NC(=O)[C@H](CCCN)NC(=O)[C@H](Cc3ccc(OCC(=O)O)cc3)NC(=O)[C@H](Cc3ccc(-c4ccccc4)cc3)NC(=O)[C@H](C(C)(C)O)NC2=O)c1 [Compound 2152] ({CH2CO}-[His(π-Me)]Y(Carboxymethyl)D[Phe(3-Me)][Val(3-OH)][Bip]Y(Carboxymethyl)[Orn][dL][Dab][Cha]VTC[Dab][Aun]-OH; thioether N-14)
12,186 nM,Cc1cccc(C[C@@H]2NC(=O)[C@H](CC(=O)O)NC(=O)[C@H](Cc3ccc(OCC(=O)O)cc3)NC(=O)[C@H](CN)NC(=O)CSC[C@@H](C(=O)N(C)CC(=O)N[C@@H](CCC(=O)O)C(=O)NCCCCCCCCCCC(=O)O)NC(=O)[C@H]([C@@H](C)O)NC(=O)[C@H](C(C)C)NC(=O)[C@H](CC3CCCCC3)NC(=O)[C@H](CCN)NC(=O)[C@@H](CC(C)C)NC(=O)[C@H](CCCN)NC(=O)[C@H](CCCNC(N)=O)NC(=O)[C@H](Cc3ccc(-c4ccccc4)cc3)NC(=O)[C@H](C(C)C)NC2=O)c1 [Compound 2839] ({CH2CO}-[Dap]Y(Carboxymethyl)D[Phe(3-Me)]V[Bip][Cit][Orn][dL][Dab][Cha]VTC[Sar]E[Aun]-OH; thioether N-14)
13,9.2 nM,Cc1cccc(C[C@@H]2NC(=O)[C@H](CC(=O)O)NC(=O)[C@H](Cc3ccc(OCC(=O)O)cc3)NC(=O)[C@H](CCCNC(=N)N)NC(=O)CSC[C@@H](C(=O)N[C@@H](CCN)C(=O)NCCCCCCCCCCC(=O)O)NC(=O)[C@H](CCC(=O)O)NC(=O)[C@H](C(C)C)NC(=O)[C@H](CC3CCCCC3)NC(=O)[C@H](CCN)NC(=O)[C@@H](CC(C)C)NC(=O)[C@H](CCCN)NC(=O)[C@H](CCC(N)=O)NC(=O)[C@H](Cc3ccc(-c4ccccc4)cc3)NC(=O)[C@H](C(C)C)NC2=O)c1 [Compound 3384] ({CH2CO}-RY(Carboxymethyl)D[Phe(3-Me)]V[Bip]Q[Orn][dL][Dab][Cha]VEC[Dab][Aun]-OH; thioether N-14)
